From patent US6521814B1, “Use of ligands for treatment of diseases responsive to retinoids” (Institut National de la Santa et de la Recherche Medicale, priority 1997, dated 2003)

Tests used:
Format in all cases: cell-based, murine
[1] = tested on: RARα−/− F9 cells; test: Morphological differentiation of F9 cell aggregates into visceral endoderm (VE)-like cells (morphology, RT-PCR of markers); parameters: key to proportion of outer layer of cells displaying VE morphology: +++: more than 80%; ++: 50-80%; +: 10-50%; ±: not more than 10%; (−): no visible effect; details: 10 d
Text: (§1) Similarly, after 10 d of treatment, >80% of the outer layer of RARα^−/− and RXRα^−/−/RARα^−/− cell aggregates differentiated into VE-like cells, which were indistinguishable from those of WT and RXRα^−/− cells (FIG. 23A, compare f with panels b and d; and Table 9). […] To exclude the possibility that this very poor differentiation of the RXRα^−/−/RARγ^−/− cells could be due to some clonal variation, rather than the presence of the RXRα-null mutation in the RARγ-null background, we expressed the RXRα cDNA in RXRα^−/−/RARγ^−/− cells.
(§2) F9 cells were cultured and induced to differentiate into primitive, parietal and visceral endoderm-like cells as previously described (Boylan, J., et al., Proc. Natl. Acad. Sci. USA 90:9601-9605 (1993); Clifford, J., et al., EMBO J. 15:4142-4155 (1996)).
(§3) RNA preparation, RT-PCR, and Southern blotting were performed as previously described (Bouillet, P., et al., Dev. Biol. 170:420-433 (1995); Roy, B., et al., Mol. Cell. Biol. 15:6481-6487 (1995)). The PCR primers and end-labeled oligonucleotide probes for collagen IVα1, laminin B1, α-fetoprotein (AFP), and 36B4, were described previously (Clifford, J., et al ., EMBO J. 15:4142-4155 (1996)). Transcript levels were quantified using a BAS 2000 bioimaging analyzer (Fuji Ltd., Tokyo, Japan), and were normalized to the corresponding 36B4 signals.

[2] = tested on: WT F9 cells; test: as above; parameters: key to proportion of outer layer of cells displaying VE morphology: +++: more than 80%; ++: 50-80%; +: 10-50%; ±: not more than 10%; (−): no visible effect; details: WT, 10 d
Text: as §1, §2, §3

[3] = tested on: RARγ−/− F9 cells; test: as above; parameters: key to proportion of outer layer of cells displaying VE morphology: +++: more than 80%; ++: 50-80%; +: 10-50%; ±: not more than 10%; (−): no visible effect; details: RARγ−/−, 10 d
Method: as §2, §3

[4] = tested on: RARα−/− F9 cells; test: Proliferation of F9 cells in monolayer culture (cell counting, [3H]thymidine incorporation, cell cycle FACS); details: 6 d
Method: (§4) Cells were plated in triplicate 3-cm culture wells (5×10^2 cells per well), and cell counting experiments were performed as previously described (Clifford, J., et al., EMBO J. 15:4142-4155 (1996)). [^3H]Thymidine incorporation assays were performed essentially as described (Clifford, J., et al., EMBO J. 15:4142-4155 (1996)), with the following modifications. […] The cell cycle profile of WT and mutant cells was determined as previously described (Clifford, J., et al. EMBO J. 15:4142-4155 (1996)).

[5] = tested on: RARγ−/− F9 cells; test: as above; details: 6 d
Method: as §4

[6] = tested on: WT F9 cells; test: as above; details: 6 d
Method: as §4

[7] = tested on: RXRα−/− F9 cells; test: as above; details: 6 d
[8] = tested on: RXRα−/−/RARα−/− F9 cells; test: as above; details: 6 d
[9] = tested on: RXRα−/−/RARγ−/− F9 cells; test: as above; details: 6 d
[10] = tested on: RARγ−/− F9 cells; test: Apoptosis of F9 cells (Hoechst 33258 staining, FACS); details: 6 d
Method: (§5) Apoptosis was analyzed by both Hoechst staining of nuclei and FACS® analysis, as previously described (Clifford, J., et al., EMBO J. 15:4142-4155 (1996)).

[11] = tested on: WT F9 cells; test: as above; details: 6 d
Method: as §5

[12] = tested on: RARα−/− F9 cells; test: as above; parameters: key: (−): no visible effect; details: 6 d
Method: as §5

[13] = tested on: RXRα−/− F9 cells; test: Morphological differentiation of F9 cell aggregates into visceral endoderm (VE)-like cells (morphology, RT-PCR of markers); details: 10 d
Text: (§6) Transcript levels were quantified using a BAS 2000 bioimaging analyzer (Fuji Ltd., Tokyo, Japan), and were normalized to the corresponding 36B4 signals.

[14] = tested on: RXRα−/−/RARα−/− F9 cells; test: as above; details: RXRα−/−/RARα−/−, 10 d
Text: as §6

[15] = tested on: RXRα−/− F9 cells; test: Apoptosis of F9 cells (Hoechst 33258 staining, FACS); details: 100 nM, 6 d
[16] = tested on: RXRα−/−/RARα−/− F9 cells; test: as above; details: 100 nM, 6 d

Compound: CC1(C)C(=O)C(C)(C)c2cc(C(=O)Nc3ccc(C(=O)O)cc3)ccc21 [RARα agonist]
- proportion of outer layer of cells displaying VE morphology ([1]; 100 nM): (−)
- proportion of outer layer of cells displaying VE morphology ([2]; 10 nM): (−)
- proportion of outer layer of cells displaying VE morphology ([2]; 100 nM): (−)
- proportion of outer layer of cells displaying VE morphology ([3]; 10 nM): (−)
- proportion of outer layer of cells displaying VE morphology ([3]; 100 nM): ± (not more than 10%)
- number of cells in percent relative to cells grown in 0.1% ethanol ([4]; 10 nM): 100%
- number of cells in percent relative to cells grown in 0.1% ethanol ([4]; 100 nM): 100%
- number of cells in percent relative to cells grown in 0.1% ethanol ([5]; 10 nM): 100%
- number of cells in percent relative to cells grown in 0.1% ethanol ([5]; 100 nM): 100%
- number of cells in percent relative to cells grown in 0.1% ethanol ([6]; 10 nM): 100%
- number of cells in percent relative to cells grown in 0.1% ethanol ([6]; 100 nM): 100%
- number of cells in percent relative to cells grown in 0.1% ethanol ([7]; 10 nM): 100%
- number of cells in percent relative to cells grown in 0.1% ethanol ([7]; 100 nM): 100%
- number of cells in percent relative to cells grown in 0.1% ethanol ([8]; 10 nM): 100%
- number of cells in percent relative to cells grown in 0.1% ethanol ([8]; 100 nM): 100%
- number of cells in percent relative to cells grown in 0.1% ethanol ([9]; 10 nM): 124%
- number of cells in percent relative to cells grown in 0.1% ethanol ([9]; 100 nM): 143%
- proportion of apoptotic nuclei and subcellular fragments (Hoechst 33258) ([10]; 100 nM): (−)
- proportion of apoptotic nuclei and subcellular fragments (Hoechst 33258) ([11]; 100 nM): (−)
- proportion of apoptotic nuclei and subcellular fragments (Hoechst 33258) ([12]; 100 nM): (−)

Compound: CC1(C)CC=C(c2ccccc2)c2cc(/C=C/c3ccc(C(=O)O)cc3)ccc21 [RARβ agonist]
- proportion of outer layer of cells displaying VE morphology ([1]; 500 nM): (−)
- proportion of outer layer of cells displaying VE morphology ([2]; 500 nM): (−)
- proportion of outer layer of cells displaying VE morphology ([3]; 500 nM): ± (not more than 10%)
- number of cells in percent relative to cells grown in 0.1% ethanol ([4]; 500 nM): 100%
- number of cells in percent relative to cells grown in 0.1% ethanol ([5]; 50 nM): 100%
- number of cells in percent relative to cells grown in 0.1% ethanol ([5]; 500 nM): 100%
- number of cells in percent relative to cells grown in 0.1% ethanol ([6]; 50 nM): 100%
- number of cells in percent relative to cells grown in 0.1% ethanol ([6]; 500 nM): 100%
- number of cells in percent relative to cells grown in 0.1% ethanol ([7]; 50 nM): 100%
- number of cells in percent relative to cells grown in 0.1% ethanol ([7]; 500 nM): 100%
- number of cells in percent relative to cells grown in 0.1% ethanol ([8]; 500 nM): 100%
- number of cells in percent relative to cells grown in 0.1% ethanol ([9]; 500 nM): 120%
- proportion of apoptotic nuclei and subcellular fragments (Hoechst 33258) ([10]; 500 nM): (−)
- proportion of apoptotic nuclei and subcellular fragments (Hoechst 33258) ([11]; 500 nM): (−)
- proportion of apoptotic nuclei and subcellular fragments (Hoechst 33258) ([12]; 500 nM): (−)

Compound: CC1(C)CCC(C)(C)c2cc([C@@H](O)C(=O)Nc3ccc(C(=O)O)cc3F)ccc21 [RARγ agonist]
- proportion of outer layer of cells displaying VE morphology ([1]; 1 nM): (−)
- proportion of outer layer of cells displaying VE morphology ([1]; 10 nM): +++ (more than 80%)
- proportion of outer layer of cells displaying VE morphology ([1]; 100 nM): +++ (more than 80%)
- proportion of outer layer of cells displaying VE morphology ([2]; 1 nM): (−)
- proportion of outer layer of cells displaying VE morphology ([2]; 10 nM): ± (not more than 10%)
- proportion of outer layer of cells displaying VE morphology ([2]; 100 nM): +++ (more than 80%)
- proportion of outer layer of cells displaying VE morphology ([13]; 10 nM): + (10-50%)
- proportion of outer layer of cells displaying VE morphology ([13]; 100 nM): +++ (more than 80%)
- proportion of outer layer of cells displaying VE morphology ([14]; 10 nM): + (10-50%)
- proportion of outer layer of cells displaying VE morphology ([14]; 100 nM): +++ (more than 80%)
- proportion of outer layer of cells displaying VE morphology ([3]; 1 nM): (−)
- proportion of outer layer of cells displaying VE morphology ([3]; 10 nM): (−)
- proportion of outer layer of cells displaying VE morphology ([3]; 100 nM): (−)
- number of cells in percent relative to cells grown in 0.1% ethanol ([4]; 10 nM): 100%
- number of cells in percent relative to cells grown in 0.1% ethanol ([4]; 100 nM): 30%
- number of cells in percent relative to cells grown in 0.1% ethanol ([5]; 10 nM): 100%
- number of cells in percent relative to cells grown in 0.1% ethanol ([5]; 100 nM): 100%
- number of cells in percent relative to cells grown in 0.1% ethanol ([6]; 10 nM): 100%
- number of cells in percent relative to cells grown in 0.1% ethanol ([6]; 100 nM): 37%
- number of cells in percent relative to cells grown in 0.1% ethanol ([7]; 10 nM): 100%
- number of cells in percent relative to cells grown in 0.1% ethanol ([7]; 100 nM): 51%
- number of cells in percent relative to cells grown in 0.1% ethanol ([8]; 10 nM): 100%
- number of cells in percent relative to cells grown in 0.1% ethanol ([8]; 100 nM): 49%
- number of cells in percent relative to cells grown in 0.1% ethanol ([9]; 10 nM): 100%
- number of cells in percent relative to cells grown in 0.1% ethanol ([9]; 100 nM): 100%
- proportion of apoptotic nuclei and subcellular fragments (Hoechst 33258) ([10]; 100 nM): (−)
- proportion of apoptotic nuclei and subcellular fragments (Hoechst 33258) ([11]; 10 nM): (−)
- proportion of apoptotic nuclei and subcellular fragments (Hoechst 33258) ([11]; 100 nM): + (>1-10%)
- proportion of apoptotic nuclei and subcellular fragments (Hoechst 33258) [15]: ±* (asterisks less than that in combination with 1 μM panRXR agonist)
- proportion of apoptotic nuclei and subcellular fragments (Hoechst 33258) ([12]; 10 nM): (−)
- proportion of apoptotic nuclei and subcellular fragments (Hoechst 33258) ([12]; 100 nM): + (>1-10%)
- proportion of apoptotic nuclei and subcellular fragments (Hoechst 33258) [16]: ±* (asterisks less than that in combination with 1 μM panRXR agonist)
